Key:
HepG2 cells [1] = assay: CellTiter-Glo Luminescent Cell Viability Assay, HepG2; type: cell-based, human; conditions: for IC50: 48 h, mean of three independent experiments
Method: (§1) The in vitro anti-proliferative activities of all the novel synthesized compounds were evaluated against HepG2 cells and MCF-7 cells by CellTiter-Glo® Luminescent Cell Viability Assay, using paclitaxel (a clinically used drug) as a positive control. Emodin (1) and compound 2 were also included for comparison.
(§2) HepG2 cells and MCF-7 cells were purchased from American Type Culture Collection (ATCC, Manassas, VA, USA). Cells were cultured in T75 flask (430641, Corning, New York, NY, USA), supplemented with high-glucose DMEM medium (Dulbecco’s modified Eagle’s medium, 11965-092, Gibco, New York, NY, USA) containing 10% Fetal bovine serum (FBS) and 1% penicillin (100 units/mL)-streptomycin (100 µg/mL) in a humidified incubator at 37 °C under 5% CO2 and 95% relative humidity (RH) atmosphere. The cells were harvested for metabolomics experiments using cell scrapers.
(§3) HepG2 cells and MCF-7 cells in 40 µL DMEM supplemented with 10% FBS were seeded at a density of 500 cells/well in 384-well cell culture plate (3570, Corning), respectively. After 24 h, the medium was substituted with fresh medium containing various sample solutions in DMSO (0.5%, v/v) at a dose range of 0.14–100 µM with 3-fold serial dilutions, and cells were cultured for another 48 h. Cells were cultured in medium without samples but 0.5% DMSO served as a control. All measurements were determined in triplicate for each treatment. After the sample treatment for 48 h, 20 µL CellTiter-Glo (G7573, Promega, Fitchburg, WI, USA) was added to each well containing cells and the contents were mixed for 2 min on an orbital shaker to induce cell lysis. The plates were then incubated at room temperature for 20 min to stabilize the luminescent signal. The luminescence was recorded on an Envision 2014 (Perkin Elmer, Waltham, MA, UAS). The IC50 values represented the samples’ concentrations required to inhibit 50% of cell proliferation and were calculated from a calibration curve by linear regression using GraphPad Prism 7.0 software (GraphPad Software, San Diego, CA, USA).

HepG2 cells [2] = assay: Cell cycle analysis, PI staining flow cytometry; type: cell-based, human; set-up: Dip G1 (G1 phase cells) / Dip S (S phase cell population): dose or concentration left out as unconfirmed; conditions: for Cell cycle distribution, G0/G1 / Cell cycle distribution, G2/M / Cell cycle distribution, S: mean ± SD of three experiments
Method: To further examine how compound 7a suppressed the growth of HepG2 cells, the effect of compound 7a on cell cycle distribution with different concentrations was investigated by flow cytometric analysis following staining the DNA with propidium iodide (PI).
The HepG2 cells were treated with indicated concentrations of compound 7a. After incubation for 48 h, cells were washed twice with ice-cold PBS, fixed and permeabilized with ice cold 70% ethanol at −20 °C overnight. The cells were treated with 100 μg/mL RNase A at 37 °C for 30min, then washed with ice-cold PBS and finally stained with 1mg/mL PI in the dark at 4 °C for 30 min. The cellular DNA content for the cell cycle distribution analysis was performed with the system software (CellQuest; BD Biosciences), plotting at least 30,000 events per sample. The percentage of cells in the G1, S and G2 phases of the cell cycle were determined using the ModFit LT version 5.0 software package (Verity Software, Topsham, ME, USA).

L02 cells = assay: Cytotoxic activity against human normal liver cells (L02); type: cell-based
MCF-7 cells = assay: CellTiter-Glo Luminescent Cell Viability Assay, MCF-7; type: cell-based, human; conditions: for IC50: MCF-7 cells, 48 h, mean of three independent experiments
Method: as §1, §2, §3

[3] = HepG2, 48 h, representative plot

Cc1cc(O)c2c(c1)C(=O)c1cc(OCCCOC(=O)[C@@H](C)N)cc(O)c1C2=O.O=C(O)C(F)(F)F [Compound 7a, (R)-1-(3-(4,5-Dihydroxy-7-methyl-9,10-dioxo-9,10-dihydroanthracen-2-yloxy)propoxy)-1-oxopropan-2-aminium 2,2,2-trifluoroacetate]
IC50 (HepG2 cells [1]; HepG2 cells): 6.47 ± 0.21 µM | enhancement of anti-proliferative activity compared to emodin (HepG2 cells [1]; HepG2 cells, IC50 ratio to parent compound emodin): 8.8 fold | IC50 (HepG2 cells [1]; Homo sapiens, HepG2, 48 h, HepG2 cells): 4.95 ± 0.14 µM | Selectivity Index HepG2 (HepG2 cells [1]; IC50 on normal cells (L02)/IC50 on cancer cells (HepG2)): 2.82 | Cell cycle distribution, G0/G1 (HepG2 cells [2]; HepG2, 0.25 μM): 44.18 ± 1.79% | Cell cycle distribution, G2/M (HepG2 cells [2]; HepG2, 0.25 μM): 17.55 ± 0.90% | Cell cycle distribution, S (HepG2 cells [2]; HepG2, 0.25 μM): 38.25 ± 1.65% | Cell cycle distribution, G0/G1 (HepG2 cells [2]; HepG2, 0.5 μM): 56.49 ± 1.40% | Cell cycle distribution, G2/M (HepG2 cells [2]; HepG2, 0.5 μM): 24.81 ± 1.79% | Cell cycle distribution, S (HepG2 cells [2]; HepG2, 0.5 μM): 19.21 ± 1.33% | Cell cycle distribution, G0/G1 (HepG2 cells [2]; HepG2, 1 μM): 63.96 ± 2.42% | Cell cycle distribution, G2/M (HepG2 cells [2]; HepG2, 1 μM): 22.22 ±1.16% | Cell cycle distribution, S (HepG2 cells [2]; HepG2, 1 μM): 14.52 ± 1.43% | Dip G1 (G1 phase cells) (HepG2 cells [2]; [3]): 63.37% | Dip S (S phase cell population) (HepG2 cells [2]; [3]): 14.60% | IC50 (L02 cells; Homo sapiens, L02, human normal liver L02 cells): 14 ± 0.27 µM | IC50 (L02 cells; human normal liver L02 cells): 18.5 ± 0.19 µM | IC50 (MCF-7 cells; Homo sapiens, MCF7, 48 h): 5.92 ± 0.36 µM | Selectivity Index MCF-7 (MCF-7 cells; IC50 on normal cells (L02)/IC50 on cancer cells (MCF-7)): 2.36 | IC50 (MCF-7 cells): 6.47 ± 0.18 µM

From article PMC6429262, “Design and Synthesis of Novel Anti-Proliferative Emodin Derivatives and Studies on their Cell Cycle Arrest, Apoptosis Pathway and Migration” (Molecules, 2019)
